One test concerns the target T1, EGFR wild type (Homo sapiens, UniProt P00533).
T1 construct: purchased Carna Bio
Put plainly: Inhibition of EGFR wild type biochemical enzymatic activity (HTRF). The settings on record: EGFR wild type, 1 mM ATP, 1 h at room temperature, read-out: IC50 @WT. In short, it runs like this: (§1)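 HTRF kinase assay: each EGFR enzyme phosphorylated 1 μM biotinylated TK substrate with 1 mM ATP in buffer containing 5 mM MgCl2, 1 mM MnCl2, 0.01% CHAPS, 1 mM DTT, 0.5% DMSO. After 1 h at room temperature, EDTA detection mix stopped the reaction. IC50 came from a four-parameter logistic fit of the 665/615 nm ratio.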
For orientation: Time-resolved FRET reads energy transfer from a long-lived donor to a nearby acceptor.

For the next test, the target named is T2, EGFR (C797S L858R) (Homo sapiens, UniProt P00533, C797S/L858R).
T2 construct: purchased signalchem
As to the kind of experiment: Inhibition of EGFR (C797S L858R) biochemical enzymatic activity (HTRF). Particulars: EGFR (C797S L858R), 1 mM ATP, 1 h at room temperature, read-out: IC50 @L858-C797S. The procedure, abridged:
as §1

In another test the target is T3, EGFR Exon19Del (Homo sapiens, UniProt P00533, DEL746-750).
T3 construct: purchased Carna Bio
T3 sequence (P00533 with tags, fused parts or gaps DEL746-750 limits assumed): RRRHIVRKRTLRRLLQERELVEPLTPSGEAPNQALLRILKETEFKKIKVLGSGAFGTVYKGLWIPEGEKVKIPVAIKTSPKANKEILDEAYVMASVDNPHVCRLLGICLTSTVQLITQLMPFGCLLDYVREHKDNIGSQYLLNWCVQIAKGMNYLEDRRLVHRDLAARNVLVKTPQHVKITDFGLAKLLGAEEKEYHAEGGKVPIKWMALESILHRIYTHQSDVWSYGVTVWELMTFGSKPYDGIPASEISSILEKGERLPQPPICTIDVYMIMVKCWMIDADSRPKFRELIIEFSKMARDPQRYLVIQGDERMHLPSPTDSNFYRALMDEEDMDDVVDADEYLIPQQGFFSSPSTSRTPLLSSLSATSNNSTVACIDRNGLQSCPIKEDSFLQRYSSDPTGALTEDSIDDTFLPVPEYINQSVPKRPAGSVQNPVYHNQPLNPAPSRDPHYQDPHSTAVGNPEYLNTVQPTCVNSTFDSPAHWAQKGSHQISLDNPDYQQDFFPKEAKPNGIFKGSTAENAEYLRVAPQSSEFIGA
As to the kind of experiment: Inhibition of EGFR Exon19Del biochemical enzymatic activity (HTRF). The settings on record: EGFR Exon19Del, 1 mM ATP, 1 h at room temperature, read-out: IC50 @Del19. In short, it runs like this: as §1

The test system of another test is A-431. Put plainly: Cell proliferation assay, A-431 cells (GI50, Table 6). The format is cell-based.
The target of another test is T4, EGFR (d746-750 C797S) (Homo sapiens, UniProt P00533, C797S/DEL746-750).
T4 construct: purchased signalchem
T4 sequence (P00533 with tags, fused parts or gaps DEL746-750/C797S limits assumed): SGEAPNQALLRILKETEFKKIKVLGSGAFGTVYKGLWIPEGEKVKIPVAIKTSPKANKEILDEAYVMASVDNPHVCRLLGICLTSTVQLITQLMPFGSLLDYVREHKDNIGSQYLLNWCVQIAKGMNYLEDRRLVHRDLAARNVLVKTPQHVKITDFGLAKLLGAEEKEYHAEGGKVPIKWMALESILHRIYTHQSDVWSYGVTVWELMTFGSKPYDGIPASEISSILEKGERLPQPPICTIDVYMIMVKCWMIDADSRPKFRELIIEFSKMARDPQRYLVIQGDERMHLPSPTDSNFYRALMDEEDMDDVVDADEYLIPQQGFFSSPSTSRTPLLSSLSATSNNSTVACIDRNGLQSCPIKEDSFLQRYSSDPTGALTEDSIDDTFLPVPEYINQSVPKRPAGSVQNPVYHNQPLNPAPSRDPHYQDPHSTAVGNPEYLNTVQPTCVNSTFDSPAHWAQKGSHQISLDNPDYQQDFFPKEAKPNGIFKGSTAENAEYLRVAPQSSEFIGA
Put plainly: Inhibition of EGFR (d746-750 C797S) biochemical enzymatic activity (HTRF). Particulars: EGFR (d746-750 C797S), 1 mM ATP, 1 h at room temperature, read-out: IC50 @Del19-C797S. In short, it runs like this: as §1

For test [1], the target named is T5, EGFR[T790M/C797S/d746-750] (Homo sapiens, UniProt P00533, C797S/DEL746-750/T790M).
T5 construct: purchased Carna Bio
Put plainly: Inhibition of EGFR[T790M/C797S/d746-750] biochemical enzymatic activity (HTRF). Particulars: EGFR[T790M/C797S/d746-750], 1 mM ATP, 1 h at room temperature, read-out: IC50 @T790M - C797S - Del19. The procedure, abridged: as §1

Test [2] has as its system Ba/F3 cells expressing EGFR mutations. As to the kind of experiment: Cell proliferation assay, Ba/F3 cells expressing EGFR mutations (CellTiter-Glo, 72 hours). The format is cell-based. In short, it runs like this: (§2)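 Ba/F3 cells carrying EGFR mutants (5000/well) or PC-9 cells (500/well) in RPMI1640 were dosed with compound series after overnight attachment and grown 72 h. Viability read by CellTiter-Glo, with day-0 counts subtracted; GI50 from curve fits of % proliferation versus DMSO control.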
A general note: Cellular ATP, detected with luciferase, serves as a proxy for viable cell number.

In another test the test system is PC-9. Put plainly: Cell proliferation assay, PC-9 cells (CellTiter-Glo, 72 hours). The format is cell-based. The settings on record: PC9 cells, read-out: GI50 PC9. In short, it runs like this:
as §2

The target in the next test is T6, EGFR L858R/T790M (Homo sapiens, UniProt P00533, L858R/T790M).
T6 construct: purchased Carna Bio
T6 sequence (P00533 25-1210 T790M/L858R): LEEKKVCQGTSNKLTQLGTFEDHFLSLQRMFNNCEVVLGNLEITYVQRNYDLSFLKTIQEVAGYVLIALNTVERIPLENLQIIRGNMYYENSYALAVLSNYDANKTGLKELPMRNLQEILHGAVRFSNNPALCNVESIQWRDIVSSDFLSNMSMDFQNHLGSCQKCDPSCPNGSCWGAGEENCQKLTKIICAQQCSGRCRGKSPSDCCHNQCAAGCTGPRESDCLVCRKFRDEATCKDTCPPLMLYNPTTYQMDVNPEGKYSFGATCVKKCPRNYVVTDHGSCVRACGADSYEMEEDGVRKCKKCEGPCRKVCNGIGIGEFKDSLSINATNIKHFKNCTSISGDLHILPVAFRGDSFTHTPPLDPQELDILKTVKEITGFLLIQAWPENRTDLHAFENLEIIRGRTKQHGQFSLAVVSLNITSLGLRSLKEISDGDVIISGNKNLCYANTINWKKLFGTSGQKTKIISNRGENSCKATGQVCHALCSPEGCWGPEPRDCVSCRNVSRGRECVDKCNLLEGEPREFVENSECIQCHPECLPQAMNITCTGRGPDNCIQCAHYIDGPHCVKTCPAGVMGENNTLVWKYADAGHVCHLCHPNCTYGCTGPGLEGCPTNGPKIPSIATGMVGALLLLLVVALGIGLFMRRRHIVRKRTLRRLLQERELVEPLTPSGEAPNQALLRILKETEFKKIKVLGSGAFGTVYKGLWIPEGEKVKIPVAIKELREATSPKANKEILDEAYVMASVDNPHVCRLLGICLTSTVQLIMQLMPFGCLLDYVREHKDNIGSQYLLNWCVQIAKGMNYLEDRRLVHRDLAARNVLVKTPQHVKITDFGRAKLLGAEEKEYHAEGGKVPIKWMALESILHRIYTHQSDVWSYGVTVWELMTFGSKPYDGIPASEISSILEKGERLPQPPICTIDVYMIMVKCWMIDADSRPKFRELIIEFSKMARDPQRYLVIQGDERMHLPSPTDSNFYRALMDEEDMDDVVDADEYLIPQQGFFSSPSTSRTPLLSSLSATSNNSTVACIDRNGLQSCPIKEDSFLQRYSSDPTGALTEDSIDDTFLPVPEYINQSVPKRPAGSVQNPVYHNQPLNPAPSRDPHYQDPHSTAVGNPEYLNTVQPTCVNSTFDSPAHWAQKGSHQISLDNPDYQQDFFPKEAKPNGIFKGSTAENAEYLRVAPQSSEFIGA
As to the kind of experiment: Inhibition of EGFR L858R/T790M biochemical enzymatic activity (HTRF). The settings on record: EGFR L858R/T790M, 1 mM ATP, 1 h at room temperature, read-out: IC50 @L858R-T790M. The procedure, abridged: as §1

In a further test the target is T7, EGFR Exon19Del/T790M (Homo sapiens, UniProt P00533, DEL746-750/T790M).
T7 construct: purchased Carna Bio
As to the kind of experiment: Inhibition of EGFR Exon19Del/T790M biochemical enzymatic activity (HTRF). The settings on record: EGFR Exon19Del/T790M, 1 mM ATP, 1 h at room temperature, read-out: IC50 @Del19-T790M. The procedure, abridged:
as §1

In another test the target is T8, EGFR L858R (Homo sapiens, UniProt P00533, L858R).
T8 construct: purchased Carna Bio
T8 sequence (P00533 25-1210 L858R): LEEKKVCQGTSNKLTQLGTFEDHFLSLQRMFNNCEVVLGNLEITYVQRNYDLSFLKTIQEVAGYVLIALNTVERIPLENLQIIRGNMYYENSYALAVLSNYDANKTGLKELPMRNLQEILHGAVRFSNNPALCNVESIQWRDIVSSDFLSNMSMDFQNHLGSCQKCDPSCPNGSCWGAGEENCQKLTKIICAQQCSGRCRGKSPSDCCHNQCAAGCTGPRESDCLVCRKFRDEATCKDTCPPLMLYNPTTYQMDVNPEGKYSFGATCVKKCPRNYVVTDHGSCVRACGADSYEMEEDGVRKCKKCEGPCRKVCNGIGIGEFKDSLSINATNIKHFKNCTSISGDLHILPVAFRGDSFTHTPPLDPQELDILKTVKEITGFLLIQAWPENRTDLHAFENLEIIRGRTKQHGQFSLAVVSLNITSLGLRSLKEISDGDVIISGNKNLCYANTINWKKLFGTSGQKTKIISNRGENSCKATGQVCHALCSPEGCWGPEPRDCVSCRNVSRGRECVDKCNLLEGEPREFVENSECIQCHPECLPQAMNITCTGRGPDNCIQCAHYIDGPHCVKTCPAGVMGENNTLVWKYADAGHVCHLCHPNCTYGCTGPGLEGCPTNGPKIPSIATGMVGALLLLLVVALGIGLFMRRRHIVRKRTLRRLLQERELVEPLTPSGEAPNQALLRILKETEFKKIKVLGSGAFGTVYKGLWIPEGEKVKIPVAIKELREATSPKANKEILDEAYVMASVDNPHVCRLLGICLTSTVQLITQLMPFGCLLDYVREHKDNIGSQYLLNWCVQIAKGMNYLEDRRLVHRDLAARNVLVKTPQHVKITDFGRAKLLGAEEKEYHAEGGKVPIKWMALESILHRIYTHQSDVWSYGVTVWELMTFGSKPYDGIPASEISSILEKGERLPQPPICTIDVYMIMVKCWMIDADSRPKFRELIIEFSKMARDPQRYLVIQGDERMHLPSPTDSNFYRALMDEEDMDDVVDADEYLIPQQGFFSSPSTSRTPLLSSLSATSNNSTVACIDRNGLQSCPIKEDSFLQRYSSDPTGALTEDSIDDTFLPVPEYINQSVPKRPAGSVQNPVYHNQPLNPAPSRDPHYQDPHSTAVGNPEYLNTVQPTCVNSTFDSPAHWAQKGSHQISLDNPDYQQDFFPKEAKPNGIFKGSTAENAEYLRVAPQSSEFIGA
Put plainly: Inhibition of EGFR L858R biochemical enzymatic activity (HTRF). The settings on record: 1 mM ATP, 1 h at room temperature, read-out: IC50 @L858R. In short, it runs like this: as §1

Another test has as its target T9, EGFR[T790M/C797S/L858R] (Homo sapiens, UniProt P00533, C797S/L858R/T790M).
T9 construct: purchased Carna Bio
As to the kind of experiment: Inhibition of EGFR[T790M/C797S/L858R] biochemical enzymatic activity (HTRF). The settings on record: EGFR[T790M/C797S/L858R], 1 mM ATP, 1 h at room temperature, read-out: IC50 @T790M- C797S - L858R. In short, it runs like this:
as §1

Where [3] appears, read: BaF3 cells, EGFR DEL19 - C797S, read-out: GI50 DEL19 - C797S/BaF3.
Where [4] appears, read: BaF3 cells, EGFR DEL19 - T790-C797S, read-out: GI50 DEL19 - T790-C797S/BaF3.
[5] abbreviates: BaF3 cells, EGFR L858R - C797S, read-out: GI50 L858R - C797S/BaF3.
Where [6] appears, read: BaF3 cells, EGFR L858R - T790-C797S, read-out: GI50 L858R - T790-C797S/BaF3.
[7] abbreviates: BaF3 cells, EGFR L858R - T790M, read-out: GI50 L858R - T790M/BaF3.
Setting [8] is: BaF3 cells, EGFR L858R, read-out: GI50 L858R/BaF3.
[9] abbreviates: EGFR DEL19 - T790M, read-out: GI50 DEL19 - T790M.

Structures are written as SMILES. Like-named read-outs stand apart in the source and are kept apart here.

For 4 molecules, IC50 and GI50 results are on record in patent publication US20260365670A1, “EGFR INHIBITORS AND USES THEREOF” (DIZAL (JIANGSU) PHARMACEUTICAL CO., LTD., priority 2022, published 2026).

One may read the IC50 as the concentration at which inhibition is half-maximal.

T1 sequence (P00533 25-1210): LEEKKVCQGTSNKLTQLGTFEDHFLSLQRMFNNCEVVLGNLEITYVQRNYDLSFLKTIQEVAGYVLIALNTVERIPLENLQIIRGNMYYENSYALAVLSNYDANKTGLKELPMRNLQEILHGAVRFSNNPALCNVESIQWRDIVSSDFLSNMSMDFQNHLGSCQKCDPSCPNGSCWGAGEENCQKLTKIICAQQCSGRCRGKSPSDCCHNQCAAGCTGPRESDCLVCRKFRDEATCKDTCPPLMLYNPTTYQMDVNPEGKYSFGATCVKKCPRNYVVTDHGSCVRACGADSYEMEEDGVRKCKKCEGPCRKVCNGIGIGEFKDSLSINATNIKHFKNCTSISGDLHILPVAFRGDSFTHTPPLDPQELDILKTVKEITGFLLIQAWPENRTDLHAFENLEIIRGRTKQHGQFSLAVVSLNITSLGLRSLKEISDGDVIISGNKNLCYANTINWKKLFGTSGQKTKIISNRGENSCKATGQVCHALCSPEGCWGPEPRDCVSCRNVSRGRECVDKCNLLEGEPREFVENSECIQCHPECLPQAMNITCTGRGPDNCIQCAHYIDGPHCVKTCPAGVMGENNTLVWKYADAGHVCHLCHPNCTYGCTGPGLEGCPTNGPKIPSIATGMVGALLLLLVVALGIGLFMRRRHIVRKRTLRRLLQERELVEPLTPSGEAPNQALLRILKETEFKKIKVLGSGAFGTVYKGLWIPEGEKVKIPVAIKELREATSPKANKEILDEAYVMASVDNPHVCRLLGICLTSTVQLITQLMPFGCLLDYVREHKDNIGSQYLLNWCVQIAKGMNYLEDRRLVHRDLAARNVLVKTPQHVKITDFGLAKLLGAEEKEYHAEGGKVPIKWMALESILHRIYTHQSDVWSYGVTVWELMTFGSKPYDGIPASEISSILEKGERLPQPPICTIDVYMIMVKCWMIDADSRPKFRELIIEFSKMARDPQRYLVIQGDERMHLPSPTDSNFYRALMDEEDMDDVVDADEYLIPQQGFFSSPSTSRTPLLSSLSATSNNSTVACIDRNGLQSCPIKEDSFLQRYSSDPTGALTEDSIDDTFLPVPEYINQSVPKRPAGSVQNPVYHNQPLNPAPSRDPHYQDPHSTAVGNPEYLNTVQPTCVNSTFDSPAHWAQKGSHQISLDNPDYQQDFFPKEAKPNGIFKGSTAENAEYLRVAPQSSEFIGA

With `Cc1cc2cc(n1)-c1cnn(C)c1OCCN1CC3CCC(CC3)(C1)n1c(nc3ccc(N4CCN(C5CC5)CC4)cc31)NC2=O` [Example B36], the IC50 is > 5000 nM at EGFR wild type; 159 nM at EGFR (C797S L858R); 24 nM at EGFR Exon19Del; 10 nM at EGFR (d746-750 C797S); 3.7 nM in test [1]; 7.6 nM at EGFR L858R/T790M. The IC50 is 5.8 nM at EGFR Exon19Del/T790M, 734 nM at EGFR L858R and 2.9 nM on EGFR[T790M/C797S/L858R]. Moreover, the GI50 amounted to 3420 nM in the test on A-431 (Homo sapiens, A-431, A-431 cells); 27 nM in [2] (Mus musculus, BaF3, 72 h, BaF3 cells, EGFR DEL19 - C797S, read-out: GI50 DEL19 - C797S/BaF3); 8 nM in test [2] (Mus musculus, BaF3, 72 h, BaF3 cells, EGFR DEL19 - T790-C797S, read-out: GI50 DEL19 - T790-C797S/BaF3); 234 nM in [2] (Mus musculus, BaF3, 72 h, BaF3 cells, EGFR L858R - C797S, read-out: GI50 L858R - C797S/BaF3); 15 nM in test [2] (Mus musculus, BaF3, 72 h, BaF3 cells, EGFR L858R - T790-C797S, read-out: GI50 L858R - T790-C797S/BaF3); 29 nM in test [2] (Mus musculus, BaF3, 72 h, BaF3 cells, EGFR L858R - T790M, read-out: GI50 L858R - T790M/BaF3). Moreover, the GI50 worked out at 200 nM in test [2] (Mus musculus, BaF3, 72 h, BaF3 cells, EGFR L858R, read-out: GI50 L858R/BaF3); 10 nM in test [2] (Mus musculus, BaF3, 72 h, EGFR DEL19 - T790M, read-out: GI50 DEL19 - T790M); 186 nM in the test on PC-9 (Homo sapiens, PC-9, 72 h).

Turning to `Cc1cc2cc(n1)-c1cnn(C)c1OCCN1CC3CCC(C3)(C1)n1c(nc3ccc(N4CCC5(CCN(C)C5)CC4)cc31)NC2=O` (single isomer, unassigned) [Example B52B], the IC50 on EGFR wild type stood at 8.3 nM; at EGFR (C797S L858R), 3.2 nM; at EGFR Exon19Del, 5.4 nM; at EGFR (d746-750 C797S), 2.4 nM; in test [1], 2 nM; at EGFR L858R/T790M it was 3.5 nM. The results for the IC50 on EGFR Exon19Del/T790M, at EGFR L858R and at EGFR[T790M/C797S/L858R] were 4.5 nM, 6 nM and 1.6 nM, respectively. Besides, the GI50 in the test with A-431 (A-431 cells) was 879 nM; in [2] (setting [3]), 2 nM; in test [2] (setting [4]), 2 nM; in test [2] (setting [5]), 2 nM; in [2] (setting [6]), 2 nM; in [2] (setting [7]), 2 nM. Also, the GI50 in test [2] (setting [8]) stood at 2 nM; in test [2] (setting [9]), 7 nM; in the test with PC-9, 4 nM.

As to `Cc1cc2cc(n1)-c1cnn(C)c1OCCN1CC3CCC(C3)(C1)n1c(nc3ccc(N4CCC5(CC4)CCN5C)cc31)NC2=O` (single isomer, unassigned) [Example B54A], the IC50 is > 5000 nM at EGFR wild type; > 5000 nM at EGFR (C797S L858R); > 5000 nM on EGFR Exon19Del; 4720 nM at EGFR (d746-750 C797S); 233 nM in [1]; > 5000 nM on EGFR L858R/T790M. The values for the IC50 at EGFR Exon19Del/T790M, at EGFR L858R and on EGFR[T790M/C797S/L858R] were 647 nM, > 5000 nM and > 5000 nM, respectively. For the same molecule, the GI50 in the test with A-431 (A-431 cells) worked out at 3410 nM; in [2] (setting [3]), 280 nM; in test [2] (setting [4]), 241 nM; in test [2] (setting [5]), 584 nM; in [2] (setting [6]), 107 nM; in test [2] (setting [7]), 298 nM. In addition, the values for the GI50 (in test [2] (setting [8]); in test [2] (setting [9]); in the test on PC-9) were 801 nM, 527 nM and 515 nM, respectively.

In the case of `COCCN(C)c1ccc2nc3n(c2c1)C12CCC(CN(CCOc4c(cnn4C)-c4cc(cc(C)n4)C(=O)N3)C1)C2` (single isomer, unassigned) [Example B46A], the IC50 (at EGFR wild type; at EGFR (C797S L858R); on EGFR Exon19Del; on EGFR (d746-750 C797S); in [1]; at EGFR L858R/T790M) was > 5000 nM throughout. Further, the IC50 on EGFR Exon19Del/T790M, at EGFR L858R and on EGFR[T790M/C797S/L858R] was > 5000 nM in each case. In addition, the GI50 with A-431 (A-431 cells) was found to be 7830 nM; in test [2] (setting [3]), 977 nM; in [2] (setting [4]) it was 492 nM; in [2] (setting [5]), 2500 nM; in test [2] (setting [6]) it was 198 nM; in test [2] (setting [7]), 919 nM. For the same molecule, the GI50 in test [2] (setting [8]) was 7610 nM; in [2] (setting [9]), 497 nM; in the test on PC-9 it was 3050 nM.
